In US20100291181A1, “THERAPEUTIC DEVICES FOR PATTERNED CELL GROWTH” (RUTGERS, THE STATE UNIVERSITY OF NEW JERSEY, priority 2002, published 2010):

Assays:
[1] = tested on: dorsal root ganglia or dissociated neurons; assay: Dorsal root ganglia or dissociated neurons plated on laminin pattern; assay type: cell-based, chick; settings: pattern of lines, PMMA substrate
From the text: Biologically active molecules were stably adsorbed onto a polymeric substrate without chemical modification of the substrate and without the use of linkers. A nondegradable polymer, poly(methyl methylacrylate) (PMMA, […] thickness, Goodfellows) and a degradable polymer, such as poly(hydroxybutyrate (PHB), polycaprolactone or polycaprolactam), were used as polymeric substrates for application of a micropattern of laminin. See FIG. 2 for the general procedure. For these experiments, the polymers were compressed into thin films of 200 μm and cut to the size of coverslips. After activation, polymeric substrates were evaluated via x-ray photoelectron spectroscopy, and/or scanning electron microscopy. […] After laminin absorption, its deposition was determined by incubating the prepared slips with rabbit anti-laminin affinity isolated antibody and FITC-conjugated goat anti-rabbit IgG (see FIG. 3).
Dorsal root ganglia dissected from seven-day old chick embryos were either directly plated onto the patterned substrate or dissociated into individual neurons and plated. […]
The laminin stamped PMMA squares were rinsed with Hank's balanced saline solution and plated with dorsal root ganglia or dissociated neurons in minimal, serum-free media. The samples were incubated at 37° C. for 24 to 48 hours, imaged with a Zeiss laser scanning confocal microscope, and the images analyzed for pattern adherence. […]

[2] = tested on: primary rat Schwann cells; assay: Schwann cells plated on pattern of laminin lines, orientation analysis; assay type: cell-based
Procedure: Purified primary rat Schwann cells were obtained from Prof. M. B. Bunge, University of Miami, the Miami Project to Cure Paralysis, and maintained in tissue culture flasks with a growth media consisting of Dulbecco's Modified Eagle's Medium (DMEM, Sigma), 10% v/v fetal bovine serum (Gibco), L-glutamine (2 mM, BioWhittaker), penicillin/streptomycin (P/S, 50 U/mL/50 μg/mL, BioWhittaker), 10 μg/mL bovine pituitary extract (Collaborative), and 10 μM forskolin (Sigma).
Schwann cells were rinsed with phosphate buffered saline (PBS, BioWhittaker) and incubated with trypsin ([…], Sigma) for 3 min. An equal amount of serum containing media was added to deactivate the trypsin and the cells were concentrated by centrifugation. […]
The samples were imaged on a Zeiss LSM 410 confocal laser-scanning microscope (CLSM) with a computer controlled laser scanning assembly attached to the microscope using a 20× phase contrast objective in fluorescence mode. An Omnichrome 3 line Argon/Krypton laser (488, 568, 647 nm) was used as the excitation source for double fluorescence measurements, with excitation at 488 nm and 568 nm and emission at 512 nm and 605 nm. […]
Multiple images were taken randomly per sample and analyzed by Image Pro Plus image analysis software (Media Cybernetics). […] Major and minor axes were calculated as well as the angle created by the major axis and the direction of patterning (FIG. 7). […]

## laminin
[1]
  neuronal process outgrowth along the pattern: most neuronal processes adhere to and grow along the lines of the laminin pattern
[2]; monolayer, ellipse fitting, FIG. 7
  orientation of Schwann cells relative to direction of laminin patterning (0°): majority of the cells are oriented at 0°
[2]; pattern of lines, FIG. 5
  process outgrowth along the pattern, Schwann cells: most neuronal processes adhere to and grow along the lines of the laminin pattern
